Results as given in patent US9511070B2, “Heterocyclyl carboxamides for treating viral diseases” (NOVADRUG, LLC, priority 2012, dated 2016).
“Also recorded” adds a separate entry of the source.

Legend:
JFH-1 HCV [1] = details: viral titer at 5 μM or 15 μM compared to untreated control
Excerpt: In vitro assay for anti-HCV efficacy. HCV studies typically involve infected patients and chimpanzees. However, recently, a robust HCV infection system was developed with cells derived from the Huh-7 human hepatoma cell line. It is based on the unique JFH-1 HCV consensus cDNA derived from an HCV patient. Using reverse genetics, the infectious virus can be rescued from this HCV clone. The recovered viable JFH virus can be passaged serially in Huh-7 cells. For this reason, this system is amenable for evaluating the activity of test compound for their anti-HCV efficacy.
(§1) Briefly, 6×10^3 Huh7-1 cells are incubated overnight in each well of collagen-coated BioCoat 96-well plates (BD Biosciences, Bedford, Mass.) in 0.2 ml 10% medium composed of Dulbecco's modified Eagle's medium supplemented with 10% fetal bovine serum. Subsequently, at 2 day intervals, the cultures are replenished with fresh 0.2 ml 10% medium. After the cultures become confluent, they continue to be replenished at 2 day intervals with fresh 0.2 ml 10% medium that also includes 1% dimethyl sulfoxide (DMSO). After 20 days of these replenishments, the Huh7-1 cultures are incubated with fresh 1% medium (same as 10% medium except that the serum level is 1%) containing HCV at a multiplicity of infection (MOI) of 0.05 focus forming units (ffu)/cell. The HCV (JFH-lwt Huh7) stock titer is 1.5×10^5 ffu/mL. The next day (day 1 post-infection) and 2 days later (day 3 post-infection) the media are replenished with fresh 1% medium containing the test compounds dissolved in DMSO. On the 5th day of treatment with the compounds, cell lysates are collected for RNA isolation and Real Time-quantitative Reverse Transcription Polymerase Chain Reaction (RT-qPCR) and culture media are collected for cytotoxicity analysis.
(§2) Total RNA is isolated from cells by the guanidine thiocyanate method using standard protocols. One μg RNA is used for cDNA synthesis using TaqMan reverse transcription reagents (Applied Biosystems, Foster City, Calif.) followed by real-time PCR using an Applied Biosystems 7300 real-time thermocycler. Thermal cycling consists of initial denaturation of 10 min at 95° C. followed by 40 cycles of denaturation (15 s at 95° C.) and annealing/extension (1 m at 60° C.). HCV and human glyceraldehyde-3-phosphate dehydrogenase (GAPDH) RNA levels are determined relative to a standard curve of serial dilutions of plasmid containing JFH-1 HCV or GAPDH cDNA. The PCR primers used to detect GAPDH and HCV are: GAPDH (NMX002046) 5′-[…]-3′(SEQ ID NO: 16) (sense) and 5′-[…]-3′(SEQ ID NO: 17) (anti-sense) JFH-1 HCV (AB047639) 5′-[…]-3′(SEQ ID NO: 18) (sense) and 5′-[…]-3′(SEQ ID NO: 19) (anti-sense).

[2] = system: Bovine Viral Diarrhea Virus strain NADL; experiment: Anti-BVDV efficacy, cytopathic (CPE) assay in Bovine Turbinate cells (MTT); assay type: cell-based; details: cell survival at 10 μM compared to untreated control; TABLE 4(a)
Method: Assay for Anti-BVDV efficacy. Bovine Turbinate (BT) cells maintained as monolayers in disposable cell culture labware are used for the antiviral efficacy test. Prior to testing, host cell cultures are seeded onto the 96-well cell culture plates and used approximately 48 hours after seeding. […] The growth medium (GM) and maintenance medium (MM) include Dulbecco's Modified Eagle Media (DMEM) with L-glutamine (ATCC #30-2002), 10% Horse serum and penicillin/streptomycin (10,000 units of penicillin and 10,000 μg of streptomycin per mL, Life Technologies #15140-122 or similar) for a final concentration of 100 units penicillin and 100 μg streptomycin in the medium. Bovine Viral Diarrhea Virus strain NADL from BSLI high-titer virus stock is used. Prior to use, aliquots of the stock virus are removed and thawed from a −70° C. freezer. The BVDV is diluted in a maintenance medium (MM) to obtain 0.1 Multiplicity of Infection (MOI). Cytopathic (CPE) assay. CPE refers to degenerative changes in BT tissue culture induced by BVDV as a consequence of its multiplication. BT cell cultures are washed with PBS, and 100 μL aliquots of MM are added to the cells and incubated in a CO2 incubator for 2 hours. After incubation, the MM is removed; the cells washed again with PBS and overlaid with 100 μL of the different concentrations of test compounds. The plates are incubated in a CO2 incubator for 48 to 72 hours. […] This assay is a colorimetric assay that measures the activity of enzymes that reduce MTT to the purple color formazan dye. CPE is confirmed using an Inverted Compound Microscope.

JFH-1 HCV [3] = experiment: Co-therapy treatment for HCV infection (intracellular HCV RNA, with and without IFN-β-1b); assay type: cell-based, Hepatitis C virus; details: for Fold Inhibition: vs untreated control
Method: as §1, §2
Co-therapy Treatment for HCV Infection. […] The compounds described herein are tested to determine whether they increase the efficacy of either RBV, IFN-β-1b, or a combination thereof. Using the protocol described for determining chemical-evoked reduction in intracellular HCV RNA, the cells are treated with and without 10 U/mL IFN-β-1b in combination with 2.5 or 10 μM of the compounds described herein and for comparison with 10 μM MA and 80 μM RBV.

HIV-Bal [4] = experiment: HIV entry (real time RT-PCR of HIV LTR in pre-treated PBMCs); assay type: cell-based, HIV-1; details: 10 μM or 25 μM; PBMCs pre-treated 1 h and 4 h
Excerpt: The following primers are used to amplify HIV transcripts: HIV LTR, Forward 5′-[…] (SEQ ID NO: 1) and Reverse 5′-[…] (SEQ ID NO: 2) and GAPDH—Forward 5′-[…] (SEQ ID NO: 3) and Reverse 5′-[…] (SEQ ID NO: 4). GADPH is used as endogenous control.

HIV-Bal [5] = experiment: HIV reverse transcription assay (2LTR circles in infected PBMCs); assay type: cell-based, HIV-1; details: 72 h post-infection; in comparison with vehicle (DMSO)
Method: HIV reverse transcription assay. Compounds described herein inhibit 2LTR circles. Stimulated PBMCs are infected with HIV-Bal (2 ng/mL per 10^6 cells) for 5 h. PBMCs are then treated with compounds at desired concentrations and AZT (control) for 72 h post-infection. The cells are then washed three times with media and genomic DNA is prepared from samples using DNeasy Blood and Tissue Kit (Qiagen). For real time PCR analysis, the following primers are used to amplify 2LTR circles (by-products of reverse transcription): Forward 5′-[…] (SEQ ID NO: 5) and Reverse 5′-[…] (SEQ ID NO: 6). […] All results represent two or three independent experiments each performed in quadruplicates; *=p<0.05, **=p<0.01, ***=p<0.001 in comparison with vehicle ([…]).

HIV-Bal [6] = experiment: HIV genomic DNA integration (ALU-PCR in infected PBMCs); assay type: cell-based, HIV-1; details: 72 h post-infection; in comparison with vehicle (DMSO)
Method: HIV Genomic DNA Integration. […] Stimulated PBMCs are infected with HIV-Bal (2 ng/mL per 10^6 cells) for 5 h. The PBMCs are then treated with compounds at desired concentrations and AZT (control) for 72 h post-infection. The cells are then washed three times with media. Genomic DNA is prepared from samples using DNeasy Blood and Tissue Kit (Qiagen). ALU-PCR is performed followed by real time PCR to quantify integrated viral genome. The following primers are used to amplify HIV transcripts: HIV LTR, Forward 5′-[…] (SEQ ID NO: 1) and Reverse 5′-[…] (SEQ ID NO: 2) and GAPDH—Forward 5′-[…] (SEQ ID NO: 3) and Reverse 5′-[…] (SEQ ID NO: 4). GADPH is used as endogenous control.

HIV-Bal [7] = experiment: HIV transcription (Rev, Gag and Env transcripts in infected PBMCs); assay type: cell-based, HIV-1; details: 72 h post-infection; in comparison with vehicle (DMSO)
Method: HIV transcription. […] Stimulated PBMCs are infected with HIV-Bal (2 ng/mL per 10^6 cells) for 4-6 h. PBMCs are then treated with compounds at desired concentrations and AZT (control) for 72 h post-infection. The cells are then washed three times with media and genomic RNA is prepared from samples using RNEasy MiniKit (Qiagen). Real time RT-PCR is performed to detect mature viral early (Rev) and late transcripts (Gag and Env). The following primers are used to amplify HIV transcripts: Rev, Forward 5′-[…] (SEQ ID NO: 7) and Reverse 5′-[…] (SEQ ID NO: 8); Env, Forward 5′-[…] (SEQ ID NO: 9) and Reverse 5′-[…] (SEQ ID NO: 10); Gag, Forward 5′-[…] (SEQ ID NO: 11) and Reverse 5′-[…] (SEQ ID NO: 12); GAPDH, Forward 5′-[…] (SEQ ID NO: 3) and Reverse 5′-[…] (SEQ ID NO: 4). GADPH is used as endogenous control.

`O=C(Nc1cccc(-c2cc3ccccc3[nH]2)c1)C1CCN(C(=O)c2cncs2)CC1` [Example 60] was tested, and the “HCV Antiviral Activity” value (JFH-1 HCV [1]) was “+ (“+” corresponds to ≦60% viral titer at 15 μM)” and the “BVDV Antiviral Activity” value [2] was “+++ (“+++” corresponds to ≧75 cell survival at 10 μM)”.
For `O=C(Nc1cccc(-c2cccc(F)c2)c1)C1CCN(Cc2cccc3cccnc23)CC1` [Example 16], the “HCV Antiviral Activity” value (JFH-1 HCV [1]) was “++ (“++” corresponds to ≦60% viral titer at 5 μM)”, the “Average HCV copies/μg RNA” value (JFH-1 HCV [3]; 2.5 μM +IFN-β-1b (10 U/mL)) was 1.1 × 10^5 copies/μg RNA and the “Fold Inhibition” value (JFH-1 HCV [3]; 2.5 μM +IFN-β-1b (10 U/mL)) was 85 fold. The “Average HCV copies/μg RNA” value (JFH-1 HCV [3]; 2.5 μM, alone) was 3.3 × 10^6 copies/μg RNA, the “Fold Inhibition” value (JFH-1 HCV [3]; 2.5 μM, alone) was 3 fold and the “Average HCV copies/μg RNA” value (JFH-1 HCV [3]; 10 μM +IFN-β-1b (10 U/mL)) was 9.6 × 10^4 copies/μg RNA. For the same molecule, the “Fold Inhibition” value (JFH-1 HCV [3]; 10 μM +IFN-β-1b (10 U/mL)) was 97 fold, the “Average HCV copies/μg RNA” value (JFH-1 HCV [3]; 10 μM, alone) was 2.0 × 10^6 copies/μg RNA and the “Fold Inhibition” value (JFH-1 HCV [3]; 10 μM, alone) was 5 fold. The “reduction of intracellular HCV RNA levels by the combination with IFN-β-1b (in words)” value (JFH-1 HCV [3]; combination with IFN-β-1b) was “more effective than that achieved with RBV; also recorded: reduces intracellular HCV RNA levels more effectively than either agent alone”.
In the case of `Cc1c[nH]c2ncnc(N3CCC(C(=O)Nc4ccc(-c5nc6ccccc6[nH]5)cc4)CC3)c12` [Example 99], the “BVDV Antiviral Activity” value [2] is reported as “+++ (“+++” corresponds to ≧75 cell survival at 10 μM)”.
In the case of `Cc1c[nH]c2ncnc(N3CCC(C(=O)Nc4ccc(Oc5ccccc5F)cc4)CC3)c12` [Example 101], the “BVDV Antiviral Activity” value [2] is reported as “++ (“++” corresponds to >50 but <75 cell survival at 10 μM)”.
`Cc1c[nH]c2ncnc(N3CCC(C(=O)Nc4cccc(-c5cc6ccccc6[nH]5)c4)CC3)c12` [Example 100] was tested, and the “BVDV Antiviral Activity” value [2] was “+++ (“+++” corresponds to ≧75 cell survival at 10 μM)”.
In the case of `CCc1ccc(CN2CCC(C(=O)Nc3ccc(-c4nc5ccccc5[nH]4)cc3)CC2)o1` [Example 59], the “HCV Antiviral Activity” value (JFH-1 HCV [1]) is reported as “++ (“++” corresponds to ≦60% viral titer at 5 μM)” and the “BVDV Antiviral Activity” value [2] is reported as “++ (“++” corresponds to >50 but <75 cell survival at 10 μM)”.
For `Cc1c[nH]c2ncnc(N3CCC(C(=O)Nc4cccc(-c5cccc(F)c5)c4)CC3)c12` [Example 102], the “BVDV Antiviral Activity” value [2] was “+++ (“+++” corresponds to ≧75 cell survival at 10 μM)”.
With `CC#CC(=O)N1CCC(C(=O)Nc2cccc(-c3cc4ccccc4[nH]3)c2)CC1` [Example 57] the “HCV Antiviral Activity” value (JFH-1 HCV [1]) was “++ (“++” corresponds to ≦60% viral titer at 5 μM)”, the “effect on HIV entry” value (HIV-Bal [4]) was “did not have an effect on HIV entry” and the “inhibition of HIV reverse transcription (2LTR circles)” value (HIV-Bal [5]) was “significantly inhibits HIV reverse transcription”. The “inhibition of HIV viral integration” value (HIV-Bal [6]) was “significantly inhibits viral integration at each concentration; also recorded: significantly inhibits HIV viral integration”, the “inhibition of HIV transcription (Rev, Gag, Env)” value (HIV-Bal [7]) was “significantly inhibits viral transcription at each concentration; also recorded: significantly inhibits HIV transcription” and the “BVDV Antiviral Activity” value [2] was “+++ (“+++” corresponds to ≧75 cell survival at 10 μM)”.
`NC(=O)c1ncn([C@@H]2O[C@H](CO)[C@@H](O)[C@H]2O)n1` [RBV, ribavirin, reference compound] was tested, and the “Average HCV copies/μg RNA” value (JFH-1 HCV [3]; 80 μM +IFN-β-1b (10 U/mL)) was 1.8 × 10^5 copies/μg RNA, the “Fold Inhibition” value (JFH-1 HCV [3]; 80 μM +IFN-β-1b (10 U/mL)) was 52 fold and the “Average HCV copies/μg RNA” value (JFH-1 HCV [3]; 80 μM, alone) was 5.0 × 10^6 copies/μg RNA. For the same molecule, the “Fold Inhibition” value (JFH-1 HCV [3]; 80 μM, alone) was 2 fold.
With `COc1cccc(CN2CCC(C(=O)Nc3ccc(-c4nc5ccccc5[nH]4)cc3)CC2)c1` [Example 58] the “HCV Antiviral Activity” value (JFH-1 HCV [1]) was “++ (“++” corresponds to ≦60% viral titer at 5 μM)” and the “BVDV Antiviral Activity” value [2] was “+++ (“+++” corresponds to ≧75 cell survival at 10 μM)”.
For `Cc1c[nH]c2ncnc(N3CCC(C(=O)Nc4cccc(Br)c4)CC3)c12` [Example 103], the “BVDV Antiviral Activity” value [2] was “+ (“+” corresponds to ≦50 cell survival at 10 μM, and improved survival over untreated control)”.
